Experimental data reported in patent publication US20150231109A1, “COMBINATIONS (CATECHINS AND METHOTREXATE) FOR USE IN THE TREATMENT OF MELANOMAS” (UNIVERSIDAD DE MURCIA, priority 2012, published 2015).

Experiments:
MITF = MITF mRNA and protein expression (RT-PCR, western blot, immunofluorescence) in melanoma cell lines; assay type: cell-based; settings: MTX 1 μM; mouse (B16/F10) and human (SK-MEL-28, G361, A375) cell lines
Experimental: mRNA extraction, cDNA synthesis, and conventional and qRT-PCR were performed under standard conditions. Primers were designed using Primer Express version 2.0 software (Applied Biosystems, Foster City, Calif.) and synthesized by Invitrogen (Barcelona, Spain).
Whole cell lysates were collected by adding SDS sample buffer. After extensive sonication, samples were boiled for 10 min and subjected to SDS-PAGE. Proteins were then transferred to nitrocellulose membranes and analyzed by immunoblotting (ECL Plus, GE Healthcare, Barcelona, Spain).
Confocal microscopy was carried out using a Leica TCS 4D confocal microscope (Wetzlar, Germany). For indirect immuno-fluorescence studies, preparation of the cells on glass slides were fixed with cold acetone for 5 min, and washed with PBS. The cells were incubated with 3% bovine serum albumin (BSA) for 20 min and then 2 h at room temperature with primary antibodies (diluted 1:200 in PBS containing 1% BSA) as described in each experiment. The cells were washed three times in PBS and incubated for 1 h at room temperature with Alexa Fluor Dyes (Invitrogen) as secondary antibodies. After 3 washes with PBS, the cells were incubated with 0.01% 4′-6-diamidino-2-phenylidene (DAPI; Sigma) in water for 5 min. […]

SK-MEL-28 cells = test: Matrigel Boyden chamber invasion assay, SK-MEL-28; assay type: cell-based, human; settings: SK-MEL-28, MTX 48 h, 1 μM
Experimental: FIGS. 1A-J. Methotrexate up-regulates the expression of MITF. A, The MITF rheostat, and the two-step strategy for melanoma therapy: Drug A induces MITF, driving cells to be sensitive to Drug B. B, MTX (1 μM) increases MITF mRNA determined using quantitative and conventional RT-PCR from indicated cell lines. […] C, MTX (1 μM) induces MITF protein assayed by western blotting (WB) (*P<0.05). D, Immunofluorescence of control or MTX-treated (3 h) 501 MEL cells using anti-MITF and DAPI. E, Matrigel assay of control and MTX-treated SKMEL-28 cells (48 h, 1 μM) and IGR39 (72 h, 1 μM) cells. […] Scale bar refers to all panels. F, Chromatin immunoprecipitation on TYR and Pmel17 genes of control and MTX-treated (4 h, 1 μM) SK-MEL-28 cells with qRT-PCR after immunoprecipitation with IgG, or MITF and HDAC3 antibodies. Error bars indicate standard deviations of triplicates; experiment reproduced four times with similar results. G, Scanning electron micrographs of control and MTX-treated (1 μM, 24 h) SK-MEL-28 cells. H, Semiquantitative RT PCR of TYR, TYRP1, Pmel17, MART1, and Rab27a mRNA. […]
Invasion assays were performed using a cell invasion assay kit (BD Bioscience). […] The invading cells were stained and quantified measuring the surface occupied by stained cells with a cell counter plug-in of the Image J software.

[1] = Pharmacokinetic studies in mice plasma; assay type: in vivo; settings: mouse, ip, male C57BL/6 mice, intra-peritoneal MTX 50 mg/kg alone or with TMECG 50 mg/kg
Experimental: Pharmacokinetic studies were performed in male C57BL/6 mice after intra-peritoneal injection of MTX (50 mg/kg) and/or TMECG (50 mg/kg). Animals were anesthetized with CO2, and whole blood samples (˜0.5 mL) were collected via cardiac puncture. Samples for drug quantification were collected from different animals (in triplicate) at 5, 15, and 30 min and at 1, 2, 4, and 6 hr post-dose. Whole blood samples were transferred to lithium heparin blood collection tubes, and then centrifuged at 10,000 rpm for 10 min at 4° C. After plasma deproteinization with 5% trichloroacetic acid (TCA), MTX and TMECG plasma concentrations were calculated by HPLC. Pharmacokinetic parameters were estimated using the WinNonlin software package (WinNonlin Professional version 5.1., Pharsight Corporation, CA). WinNonlin model 200 was used for the non-compartmental analysis of the concentration-time data. The area under the plasma concentration-time curve (AUClast) from time 0 to the last point (tlast) with measurable concentration (Clast) was estimated using a linear trapezoidal approximation (AUClast). The elimination half-life (t1/2) was calculated as ln2/kel, where kel (elimination rate constant) was estimated using least squares regression analysis of the concentration-time data obtained during the terminal log-linear elimination phase. The maximum plasma concentrations (Cmax) were estimated directly from the data, with tmax being defined as the time of the first occurrence of Cmax.

## CN(Cc1cnc2nc(N)nc(N)c2n1)c1ccc(C(=O)N[C@@H](CCC(=O)O)C(=O)O)cc1 [MTX, methotrexate]
MITF
  MITF mRNA and protein: increased
SK-MEL-28 cells
  invasiveness: eliminated invasiveness
[1]; read-out: MTX parameters AUC
  AUC: 32000 ng·h/mL
[1]; read-out: MTX parameters Cmax
  Cmax: 24600 ng/mL
[1]; read-out: MTX parameters Tmax
  Tmax: 0.5 h
[1]; read-out: MTX parameters t1/2 (converted)
  half-life: 1.77 h
